This passage reports IC50 results from ChEMBL document CHEMBL3301448, “MMV Malaria Box screening against Toxoplasma gondii and Entamoeba histolytica”.

One assay relates to Toxoplasma gondii. Put plainly: MMV: A total of 100ul of inoculum was added to each well (parasite/cell ratio, ~10:1; final volume, 200 ul). Six hours after inoculation, nonadherent parasites were removed, and 100 ul of complete DMEM (1% penicillin-streptomycin, 3% FBS) supplemented with inhibitors at different concentrations (2-fold serial dilutions starting from 30 uM) was added to all except the negative-control wells. Positive controls, consisting of pyrimethamine (PYR) and sulfadiazine (SDZ) (20-mg/ml stocks in DMSO), were tested at a 2mg/ml final concentration. Each test was performed in triplicate. It counts as functional, organism-based. The note with it: 6 h.

The next assay relates to Entamoeba histolytica. The assay can be described thus: MMV: Primary screening was performed with each compound at a 30 uM final concentration and in triplicate in sealed 96-well polystyrene microtiter plates. Parasite inocula (100 ul) comprising 20000 parasites/ml were added to each well and grown at 37 degrees C in a humidified atmosphere of 5% CO2 for 72 h. Positive controls consisted of metronidazole at 1 mg/ml. The growth of E. histolytica trophozoites in each well was determined microscopically by measuring the diameters of the confluent cells in drug-containing wells relative to those in the nega- tive-control wells. Type of assay: functional, organism-based.

Where only a bound is given, the exact number is not on record here.

Broadly, the IC50 is the concentration needed to halve the response being measured.

For `CCOC(=O)c1c[nH]c2c(CC)cccc2c1=O`, the IC50 in the assay with Toxoplasma gondii and with Entamoeba histolytica was more than 30 µM in each case.

As for `Cc1sc(NC(=O)c2ccccc2)c(C(c2cccs2)N2CCN(c3ccccc3)CC2)c1C` (configuration not stated), the IC50 in the assay on Toxoplasma gondii and in the assay with Entamoeba histolytica was more than 30 µM each time.

In the case of `c1ccc(/C2=N/c3ccccc3/N=C(/c3ccccc3)c3ccccc32)cc1`, the IC50 in the assay on Toxoplasma gondii and with Entamoeba histolytica was more than 30 µM throughout.

For `COc1ccc(-c2cc3c(SCC(=O)Nc4cc(C(F)(F)F)ccc4Cl)nccn3n2)cc1`, the half-maximal inhibitory concentration (IC50) in the assay on Toxoplasma gondii and in the assay on Entamoeba histolytica was more than 30 µM throughout.

For `O=C(Nc1ccc(C23CC4CC(CC(c5ccccc5)(C4)C2)C3)cc1)c1cccs1`, the IC50 in the assay with Toxoplasma gondii and in the assay with Entamoeba histolytica was more than 30 µM throughout.

`Cc1c(C)n(Cc2ccc(F)cc2)c2ccc(C(=O)NCc3ccco3)cc12`: the IC50 with Toxoplasma gondii and in the assay on Entamoeba histolytica was more than 30 µM each time.

On to `COc1cc(C(=O)Nc2nc3c(cc4c5c(cccc53)CC4)s2)cc(OC)c1OC`, for which the IC50 with Toxoplasma gondii and in the assay on Entamoeba histolytica was more than 30 µM in each case.

`COc1cc(OC)cc(N2C(=O)N(Cc3ccc(C(C)(C)C)cc3)c3ccccc3S2(=O)=O)c1`: the IC50 in the assay with Toxoplasma gondii and with Entamoeba histolytica was more than 30 µM throughout.

Turning to `COc1ccc(CCN2CCC(CN(C)Cc3cnn(-c4ccccc4)c3)CC2)cc1`, the IC50 in the assay on Toxoplasma gondii and with Entamoeba histolytica was more than 30 µM in each case.

In the case of `COc1ccc(NC(=O)C2c3ccccc3C(=O)N(CC(C)C)C2c2cccs2)cc1` (configuration not stated), the IC50 with Toxoplasma gondii and in the assay on Entamoeba histolytica was more than 30 µM in each case.

Consider `COc1ccc(C(=O)Nc2ccc(Cl)cc2C(=O)Nc2ccncc2)cc1`, for which the IC50 with Toxoplasma gondii and with Entamoeba histolytica was more than 30 µM throughout.

As to `O=c1nc(C=Cc2ccc(Br)cc2)oc2ccccc12`, the IC50 with Toxoplasma gondii and in the assay with Entamoeba histolytica was more than 30 µM in each case.

For the compound `Cc1cc(NCCN2CCCCC2)c2ccc3ccccc3c2n1`, the 50% inhibitory concentration (IC50) in the assay with Toxoplasma gondii and in the assay on Entamoeba histolytica was more than 30 µM each time.

As to `COc1ccc(-c2c(C)nn3c(N)c(C#N)cnc23)cc1OC`, the IC50 in the assay on Toxoplasma gondii and in the assay on Entamoeba histolytica was more than 30 µM throughout.

As to `Nc1ccc(-c2nc3cc(Oc4ccc(Oc5ccc6[nH]c(-c7ccc(N)cc7)nc6c5)cc4)ccc3[nH]2)cc1`, the IC50 in the assay with Toxoplasma gondii and with Entamoeba histolytica was more than 30 µM in each case.

On to `COc1ccc(C=C2SC(Nc3ccc(F)cc3)=NC2=O)c(OC)c1`, for which the IC50 in the assay on Toxoplasma gondii and in the assay on Entamoeba histolytica was more than 30 µM throughout.

With `Cc1cc(C)cc(Nc2cc(C)nc3nc(C(F)(F)F)nn23)c1`, the IC50 with Toxoplasma gondii and in the assay with Entamoeba histolytica was more than 30 µM in each case.

Take `COc1ccc(-c2cc(=O)oc3c4c(ccc23)OCN(Cc2ccc(F)cc2)C4)cc1`: the IC50 in the assay on Toxoplasma gondii and in the assay on Entamoeba histolytica was more than 30 µM throughout.

As to `CCN(CC)CCn1c(=N)n(CC(O)c2ccc(Cl)c(Cl)c2)c2ccccc21` (configuration not stated), the IC50 in the assay with Toxoplasma gondii and with Entamoeba histolytica was more than 30 µM each time.

As for `O=c1cc(NC2CCN(CCCc3ccccc3)CC2)c2cc(Cl)ccc2o1`, the IC50 in the assay with Toxoplasma gondii and with Entamoeba histolytica was more than 30 µM throughout.

For the compound `CCOC(=O)c1cnc2ccc(OC)cc2c1NCc1ccccc1`, the IC50 in the assay on Toxoplasma gondii and in the assay with Entamoeba histolytica was more than 30 µM each time.

As to `CN1CCN(c2ccc(Nc3c4ccccc4nc4ccccc34)cc2)CC1`, the 50% inhibitory concentration (IC50) with Toxoplasma gondii and in the assay on Entamoeba histolytica was more than 30 µM throughout.

As to `COc1ccccc1N1CCN(C(CNS(=O)(=O)c2ccc(Cl)cc2)c2cccnc2)CC1` (configuration not stated), the IC50 in the assay with Toxoplasma gondii and with Entamoeba histolytica was more than 30 µM each time.

On to `COc1cc(-c2nc(-c3ccc(Sc4ccccc4)cc3)c(-c3ccccc3)[nH]2)cc(OC)c1O`, for which the IC50 in the assay with Toxoplasma gondii is 5.85 µM; in the assay on Entamoeba histolytica, more than 30 µM.

As to `COc1cccc(NC(=O)Cn2c(C)c(C#N)c3ccccc32)c1`, the IC50 with Toxoplasma gondii and in the assay with Entamoeba histolytica was more than 30 µM each time.

Consider `Cc1ccc(-c2cc3c(SCC(=O)Nc4cc(C(F)(F)F)ccc4Cl)nccn3n2)cc1`, for which the IC50 with Toxoplasma gondii and with Entamoeba histolytica was more than 30 µM throughout.

In the case of `COc1ccc(-c2nonc2NC(=O)c2cccc(Cl)c2)cc1OC`, the IC50 in the assay with Toxoplasma gondii and in the assay with Entamoeba histolytica was more than 30 µM in each case.

As to `O=C1CC(O)(C(F)(F)C(F)(F)F)Oc2ccccc21` (configuration not stated), the IC50 in the assay with Toxoplasma gondii and in the assay on Entamoeba histolytica was more than 30 µM throughout.

For the compound `CN(C)CCCNc1c2ccccc2nc2ccccc12`, the IC50 with Toxoplasma gondii was 25.8 µM; in the assay on Entamoeba histolytica, more than 30 µM.

For `O=C(NCc1ccco1)C1CCN(S(=O)(=O)c2ccc(Br)cc2)CC1`, the IC50 with Toxoplasma gondii and with Entamoeba histolytica was more than 30 µM each time.

On to `CCCCCCc1cc2cc(-c3csc(C=Cc4ccccc4)n3)c(=O)oc2cc1O`, for which the IC50 in the assay on Toxoplasma gondii and in the assay on Entamoeba histolytica was more than 30 µM throughout.

In the case of `CCCN(CCC)CCCNC(=O)c1cc2c(-c3ccc(OC)c(OC)c3)nn(C)c2s1`, the IC50 in the assay with Toxoplasma gondii and with Entamoeba histolytica was more than 30 µM in each case.

With `CC1(c2ccccc2)Nc2ccccc2-c2nc3ccccc3n21` (configuration not stated), the IC50 in the assay with Toxoplasma gondii and in the assay with Entamoeba histolytica was more than 30 µM each time.

For `N#Cc1nc(Cc2cccc3ccccc23)oc1N1CCN(C(c2ccccc2)c2ccccc2)CC1`, the half-inhibitory concentration (IC50) in the assay on Toxoplasma gondii and with Entamoeba histolytica was more than 30 µM throughout.

As to `COc1cccc(Nc2nc(NCCO)c3ccccc3n2)c1`, the IC50 in the assay on Toxoplasma gondii and in the assay on Entamoeba histolytica was more than 30 µM in each case.

For the compound `Cc1ccc(-c2cc3nc4c(c(O)n3n2)CCCC4)cc1`, the IC50 in the assay with Toxoplasma gondii is 8.22 µM; in the assay on Entamoeba histolytica it was more than 30 µM.

With `CC(=O)c1sc(NC(=O)Nc2ccc(C)cc2C)nc1C`, the IC50 in the assay with Toxoplasma gondii and in the assay with Entamoeba histolytica was more than 30 µM in each case.

On to `CCCCOc1ccc(C(=O)Nc2cc(C)on2)cc1`, for which the IC50 in the assay with Toxoplasma gondii and in the assay with Entamoeba histolytica was more than 30 µM throughout.

For the compound `COc1ccc(-c2cc3c(nn2)-c2ccccc2C3=O)cc1`, the 50% inhibitory concentration (IC50) with Toxoplasma gondii and in the assay with Entamoeba histolytica was more than 30 µM throughout.

As for `CCOC(=O)c1c(C)n(-c2ccc(Cl)cc2)c2ccc(OC(=O)C=Cc3ccccc3)cc12`, the IC50 in the assay with Toxoplasma gondii was more than 30 µM; in the assay with Entamoeba histolytica, 10.7 µM.

Consider `CCCCCCOC(=O)C1=C(C)NC(=O)NC1c1ccccc1F` (configuration not stated), for which the IC50 with Toxoplasma gondii and in the assay with Entamoeba histolytica was more than 30 µM throughout.

Regarding `Nc1ccc(-c2nc3cc(Cc4ccc5[nH]c(-c6ccc(N)cc6)nc5c4)ccc3[nH]2)cc1`, the concentration for half-maximal inhibition (IC50) in the assay on Toxoplasma gondii and with Entamoeba histolytica was more than 30 µM in each case.

Take `Oc1ccc(Br)cc1CN1CCN(Cc2ccc(Cl)cc2)CC1`: the IC50 in the assay on Toxoplasma gondii was 14.5 µM; in the assay on Entamoeba histolytica, more than 30 µM.

For the compound `C=CC12CCN(CC1)C(C(O)c1ccnc3ccc(OC)cc13)C2` (configuration not stated), the IC50 in the assay with Toxoplasma gondii and in the assay with Entamoeba histolytica was more than 30 µM throughout.

Turning to `N=c1c2ccccc2nnn1-c1cccc(C(F)(F)F)c1`, the half-maximal inhibitory concentration (IC50) with Toxoplasma gondii and in the assay with Entamoeba histolytica was more than 30 µM throughout.

With `O=C(Nc1ccc(CN2CCOCC2)cc1)c1ccc(-c2ccc(Br)cc2)o1`, the IC50 in the assay with Toxoplasma gondii and with Entamoeba histolytica was more than 30 µM each time.

Regarding `Cn1c(=O)c2cc(C(=O)NCCCN3CCCCCC3)sc2c2ccccc21`, the IC50 with Toxoplasma gondii and in the assay on Entamoeba histolytica was more than 30 µM in each case.

Regarding `Cc1cc(NC(=O)c2cccc(C(F)(F)F)c2)n(-c2nc(-c3ccc4c(c3)OCO4)cs2)n1`, the IC50 with Toxoplasma gondii and in the assay with Entamoeba histolytica was more than 30 µM each time.

Regarding `Oc1c(C(Nc2ccccn2)c2cccc(Oc3ccccc3)c2)ccc2cccnc12` (configuration not stated), the IC50 in the assay on Toxoplasma gondii and with Entamoeba histolytica was more than 30 µM throughout.

As to `Cc1cc(Nc2ccc(OCc3ccccc3)cc2)nc2cc(O)ccc12`, the IC50 in the assay on Toxoplasma gondii and in the assay with Entamoeba histolytica was more than 30 µM throughout.

For the compound `Cc1cc(C=C2SC(=Nc3ccccc3)N(C3CCCC3)C2=O)c(C)n1-c1ccc(Cl)cc1`, the IC50 in the assay on Toxoplasma gondii and in the assay with Entamoeba histolytica was more than 30 µM in each case.

Turning to `CCC(C)NCC(O)(c1ccc(Cl)cc1)c1ccc(Cl)cc1` (configuration not stated), the IC50 with Toxoplasma gondii and in the assay with Entamoeba histolytica was more than 30 µM throughout.

In the case of `Cc1ccc(N2C(=O)C3C(C2=O)C2(c4ccccc4)C(=O)C3(c3ccccc3)C(c3ccccc3)=C2c2ccccc2)cc1` (configuration not stated), the IC50 with Toxoplasma gondii and with Entamoeba histolytica was more than 30 µM in each case.

As to `CCN(CC)c1cc(C)c2cc(NC(=O)c3cccc(OC)c3)ccc2n1`, the IC50 in the assay with Toxoplasma gondii and in the assay on Entamoeba histolytica was more than 30 µM in each case.

As for `CCOC(=O)c1cnc2ccc(OC)cc2c1Nc1ccc(N2CCN(C)CC2)cc1`, the IC50 with Toxoplasma gondii and in the assay with Entamoeba histolytica was more than 30 µM each time.

`Oc1ccc(C(=C(Cl)Cl)c2ccc(O)cc2)cc1`: the IC50 in the assay with Toxoplasma gondii and with Entamoeba histolytica was more than 30 µM each time.

Regarding `O=C(NC1CCN(Cc2ccccc2)CC1)c1cc(C(=O)NC2CCN(Cc3ccccc3)CC2)cc(C(=O)NC2CCN(Cc3ccccc3)CC2)c1`, the IC50 in the assay with Toxoplasma gondii and in the assay with Entamoeba histolytica was more than 30 µM each time.

`Cc1[nH]c(-c2ccc(F)cc2)cc1C(=O)NC1CCN(Cc2ccccc2)CC1`: the half-maximal inhibitory concentration (IC50) with Toxoplasma gondii and in the assay with Entamoeba histolytica was more than 30 µM throughout.

With `COC(=O)c1ccc(Cl)c2c1C1C=CCC1C(c1cccc3ccccc13)N2` (configuration not stated), the IC50 in the assay on Toxoplasma gondii and in the assay on Entamoeba histolytica was more than 30 µM throughout.

For the compound `CCOc1ccc(Nc2c3ccccc3nc3ccccc23)cc1`, the IC50 in the assay on Toxoplasma gondii and in the assay on Entamoeba histolytica was more than 30 µM throughout.

With `C=CCc1c(C)nc2ccccc2c1O`, the IC50 in the assay with Toxoplasma gondii and in the assay with Entamoeba histolytica was more than 30 µM in each case.

Regarding `COc1ccc(/C=C2/SC(=Nc3ccccc3)NC2=O)cc1`, the IC50 in the assay on Toxoplasma gondii and in the assay with Entamoeba histolytica was more than 30 µM in each case.

For the compound `O=c1c2c([nH]c3ccccc13)CCCC2`, the IC50 with Toxoplasma gondii and in the assay on Entamoeba histolytica was more than 30 µM in each case.

Turning to `CCOc1cc2c(cc1OCC)C(c1cc(Cl)ccc1O)NCC2` (configuration not stated), the IC50 with Toxoplasma gondii and with Entamoeba histolytica was more than 30 µM each time.

Regarding `COc1ccc(NC(=O)C2c3ccccc3C(=O)N(CC(C)C)C2c2cccs2)cc1Cl` (configuration not stated), the concentration for half-maximal inhibition (IC50) in the assay with Toxoplasma gondii and in the assay on Entamoeba histolytica was more than 30 µM throughout.

Regarding `CCC(=O)Nc1nnc(Cc2ccc(OC)c(OC)c2)s1`, the IC50 with Toxoplasma gondii and with Entamoeba histolytica was more than 30 µM each time.
